Measured values reported in patent US20110178104A1, “Anti-Heparin Compounds” (POLYMEDIX INC., priority 2010, published 2011).
Values after ≈ are worked out from the molar mass of the structure shown. Values joined by “and” are separate entries in the source; they are usually repeats but may differ in a detail not shown here. Equal values may be shown once.

Legend:
[1] = tested on: enoxaparin (ENOX); experiment: FXa chromogenic assay (absence of plasma), enoxaparin; conditions: enoxaparin 0.1 μg/mL, absence of plasma
[2] = tested on: enoxaparin; experiment: FXa amidolytic assay in human plasma, enoxaparin; format: biochemical; conditions: enoxaparin 10 μg/mL, at a concentration of about 50 μg/mL
[3] = tested on: fondaparinux (FONDAPX); experiment: FXa chromogenic assay (absence of plasma), fondaparinux; conditions: fondaparinux 0.02 μg/mL, absence of plasma
Procedure: Human antithrombin was mixed with an anticoagulant agent (a LMWH or fondaparinux); final concentrations were 0.22 μg/mL for the LMWHs and 0.07 μg/mL for fondaparinux. […] Absorbance was read every 30 seconds over a 4 minute period in a SpectraMax 250 instrument (Molecular Devices, Inc.). EC50 values are determined by a curve-fit program (SoftMax Pro) using the following formula:
FXa Chromogenic Assay (absence of plasma). Human antithrombin was mixed with an anticoagulant (a LMWH or fondaparinux); final concentrations were 0.1 μg/mL for the LMWHs and 0.02 μg/mL for fondaparinux. […] Absorbance was read every 30 seconds over a 4 minute period in a SpectraMax 250 instrument (Molecular Devices Inc.™) The slope of absorbance vs time was calculated for each compound concentration. EC50 values were determined using a curve fit program (GraphPad Prism 5).

[4] = tested on: unfractionated heparin (UFH); experiment: aPTT clotting assay, UFH 0.2 U/mL in plasma (Example 7); format: biochemical; conditions: UFH 0.2 U/mL in plasma
Procedure: (§1) aPTT clotting Assay. Unfractionated heparin was mixed with plasma at a final concentration of 0.2 U/mL. […] The ACL Elite Hemostasis analyzer (Beckman Coulter™) was used to add aPTT reagent (HemosIL SynthASil) to supplemented plasma. Clotting was initiated by addition of CaCl2 and time to clot was recorded.

[5] = tested on: UFH; experiment: FXa amidolytic assay in human plasma, UFH; format: biochemical; conditions: UFH 4 μg/mL
Procedure: (§2) Eight parts of pooled human plasma was supplemented with 1 part LMWH or UFH at final concentrations of 4 μg/mL, or fondarinux at a final concentration of 1.25 μg/mL. One 1 μL sample of test agent was then added to 9 μL of supplemented plasma (test agent concentration ranges=0.156 to 20 μg/mL) and mixed. The supplemented plasmas were analyzed immediately in clotting and amidolytic assays as described below. All samples were performed in duplicate.
FXa Amidolytic Assay: Bovine factor Xa was added to supplemented plasma and incubated for 5 minutes at 37° C. Spectrozyme FXa substrate was added and the optical density change at 405 nm was measured for 30 seconds. % factor Xa inhibition is calculated using the following equation:
(§3) % Inhibition=[(ODbaseline−ODsample)/ODbaseline]×100.

[6] = tested on: UFH; experiment: FIIa amidolytic assay in human plasma, UFH; format: biochemical; conditions: UFH 4 μg/mL
Procedure: as §2
FIIa Amidolytic Assay. Human thrombin was added to supplemented plasma and incubated for 1 minute at 37° C. Spectrozyme TH substrate was added and the optical density change at 405 nm was measured for 30 seconds in a SpectraMax 250 instrument. % factor IIa inhibition was calculated using the following equation:
as §3

[7] = Coagulation properties via ROTEM; conditions: at fully efficacious doses
[8] = tested on: fondaparinux; experiment: In vivo neutralization of fondaparinux in the rat; conditions: fondaparinux 0.5 mg/kg IV, test agent 2 and 5 mg/kg IV
[9] = tested on: tinzaparin; experiment: FXa amidolytic assay (Example 10), tinzaparin; conditions: read-out: Tinzap FXa EC50; tinzaparin 0.1 ug/ml; human antithrombin, bovine Factor Xa
Procedure: (§5) Two μl of test agent are added (range between 0.01 and 23 ug/ml) and incubated for 5 minutes at 23° C. Bovine Factor Xa was added to a final concentration of 0.636 nkat/mL and incubated for a further 10 minutes at 23° C.

[10] = tested on: fondaparinux; experiment: FXa amidolytic assay (Example 10), fondaparinux; conditions: for EC50: read-out: Fondap FXa EC50, fondaparinux 0.02 μg/mL, human antithrombin, bovine Factor Xa
Procedure: as §5

[11] = tested on: UFH; experiment: In vivo neutralization of unfractionated heparin in the rat; conditions: UFH 100 U/kg IV, 1 mg/kg dose IV
Procedure: The male Sprague-Dawley rats used in this study were obtained from Charles River Laboratories, Raleigh. They were nine-weeks-old at the start of the study and their weights ranged from 279-334 g. Rats were pre-treated with UFH administered by IV injection in a tail vein at 100 U/kg in a dose volume of 1 mL/kg. The rats were then treated with a single IV injection of saline, protamine or the appropriate test compound at doses of 0.25, 0.5 and 1.0 mg/kg. All treatments were dosed in a volume of 1 mL/kg. Blood was collected via the orbital sinus from three rats per group at the following time points after treatment: predose, 1, 3, 10, 30 and 60. At each time point, 1 mL of blood was collected from each animal into a single tube. The blood was analyzed using an AMEX Destiny Plus Coagulation Analyzer for activated partial thromboplastintime (APTT) and anti-Factor Xa.

[12] = Cytotoxicity colorimetric assay, HepG2; format: cell-based, human; conditions: human, HepG2 cells, one hour in serum-free media
Outline: (§4)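 HepG2 cells (3×10^4/well, MEM + 10% FBS) and NIH/3T3 cells (2×10^4/well, DMEM + 10% BCS) were exposed to compound for 1 h in serum-free medium. Viability read by tetrazolium-to-formazan bioreduction after return to serum medium; EC50 from a four-parameter logistic fit.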

[13] = tested on: HepG2 cells; experiment: Cytotoxicity colorimetric assay, HepG2; format: cell-based, human; conditions: one hour in serum-free media
Outline: as §4

[14] = tested on: enoxaparin; experiment: In vivo neutralization of enoxaparin in the rat; conditions: compared with protamine
[15] = tested on: blood pressure; experiment: Hemodynamic responses in the anesthetized rat; format: in vivo
Excerpt: As a key safety issue for cationic compounds is reduction in blood pressure shortly after administration. To address this hemodynamic issue, a medicinal chemistry strategy with literature precedence of introducing carboxylic acid functionality was applied to the salicylamide series of compounds. […] Surgically prepared animals were purchased from Charles River Laboratories, Raleigh, N.C. Animals were anesthetized on the day of experiment with isoflurane (1.8-4%). Blood pressure and heart rate data were collected on a Grass Polygraph recorder. The test articles, vehicle or protamine dosing preparations were administered once to each rat by a 10 minute intravenous infusion three minutes following a single intravenous injection of heparin (50 U/kg). Each animal received a dose volume of 2.0 mL/kg. Blood pressure was recorded prior to treatment for approximately 1 minute and immediately following heparin, immediately following vehicle, test articles or protamine and at 5, 15, 30, and 60 minutes following dosing. The doses of test agent were either 8 mg/kg or 16 mg/kg. The differences in hemodynamic effect at 16 mg/kg were especially profound (FIG. 5).

[16] = tested on: enoxaparin; experiment: Enoxaparin-extended bleeding times, rat tail transection model; format: in vivo
Procedure: Studies have now been done to examine effects on extended bleeding times caused by enoxaparin treatment. Male Sprague Dawley rats (Charles River) were administered 2 mg/kg enoxaparin by IV injection in the tail vein, followed 3 minutes later by test agent (IV, tail vein) at 2 and 5 mg/kg doses. Tails were then rapidly transected and bleeding time onto an absorbant pad was determined. Enoxaparin alone (no antagonist) extends bleeding time from 11 to 24 seconds.

[17] = tested on: Unfractionated heparin; experiment: aPTT clotting assay, UFH 0.4 U/mL in plasma (Example 10); format: biochemical; conditions: unfractionated heparin 0.4 U/mL in plasma; aPTT clotting
Procedure: as §1, with “Assay:” for “Assay.”, “0.4 U/mL (or concentration which increases aPTT time to between 120 and 300 seconds).” for “0.2 U/mL.”

[18] = tested on: isolated human erythrocytes; experiment: in vitro; format: cell-based; conditions: for EC50: Homo sapiens, Erythrocyte, 1 h, human RBC, 1 hour at 37° C., read-out: Hemolysis EC50
Outline: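 Pooled human red cells, washed and diluted from a 0.22% stock suspension in TBS pH 7.4, were shaken with two-fold dilutions (1000 to 0.48 µg/ml) for 1 h at 37 °C. Released hemoglobin in the supernatant was read at OD405. EC50 came from a four-parameter logistic fit, with melittin as positive control.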

[19] = tested on: UFH; experiment: FXa amidolytic assay (Example 10), UFH; conditions: read-out: Heparin FXa uM EC50; UFH 0.03 units/mL; human antithrombin, bovine Factor Xa
Procedure: as §5

[20] = Cytotoxicity colorimetric assay, NIH/3T3; format: cell-based, mouse; conditions: mouse, NIH/3T3 cells, one hour in serum-free media
Outline: as §4

[21] = tested on: NIH/3T3 cells; experiment: Cytotoxicity colorimetric assay, NIH/3T3; format: cell-based, mouse; conditions: one hour in serum-free media
Outline: as §4

[22] = tested on: enoxaparin; experiment: FXa amidolytic assay (Example 10), enoxaparin; conditions: read-out: Enox FXa EC50; enoxaparin 0.1 ug/ml; human antithrombin, bovine Factor Xa
Procedure: as §5

[23] = at a concentration of greater than about 25 μg/mL

With `COc1ccc(NC(=O)[C@H](CCCCN)NC(=O)c2cc(NC(=O)[C@H](CCCCN)NC(=O)c3cc(NC(=O)[C@H](CCCCN)NC(=O)c4cc(NC(=O)[C@@H](N)CCCCN)ccc4OC)ccc3OC)ccc2OC)cc1C(N)=O` [Compound 8] the “ENOX (FXa) EC50” value [1] was 0.29 µg/mL, the “percent of the anticoagulant effect of enoxaparin inhibited (FXa amidolytic)” value [2] was “about 60%” and the “FONDAPX (FXa) EC50” value [3] was 6.19 µg/mL. For the same compound, the “UFH (aPTT) EC50” value [4] was 2.26 µg/mL, the “percent of the anticoagulant effect of UFH inhibited (FXa amidolytic)” value [5, 23] was 90%-100% and the “concentration antagonizing about 50% of the anticoagulant effect of UFH (FXa amidolytic)” value ([5]; human plasma) was 12 to 18 µg/mL. The “percent of the anticoagulant effect of UFH inhibited (FIIa amidolytic)” value [6, 23] was 98%-100% and the “concentration antagonizing about 50% of the anticoagulant effect of UFH (FIIa amidolytic)” value ([6]; human plasma) was 14 to 20 µg/mL.
With `COc1ccc(NC(=O)[C@@H](CCCNC(=N)N)NC(=O)c2cc(NC(=O)[C@@H](CCCNC(=N)N)NC(=O)c3cc(NC(=O)[C@@H](CCCNC(=N)N)NC(=O)c4cc(NC(=O)[C@H](N)CCCNC(=N)N)ccc4OCC(=O)O)ccc3OC)ccc2OC)cc1C(N)=O` [Compound 283] the “coagulation properties via ROTEM” value [7] was “normal coagulation properties at fully efficacious doses”, the “reduction of Factor Xa (anti-factor Xa) levels after fondaparinux” value [8] was “lack of effectiveness” and the EC50 [9] was 124 nM and 96 nM. The “Potent LMWH-antagonists with superior anti-fondaparinux activity (summary)” value [10] was “superior anti-fondaparinux activity”, the EC50 [10] was 575 nM and 530 nM and 452 nM and the “neutralization of UFH activity in aPTT assays” value [11] was “complete neutralization”. For the same compound, the EC50 at 1 h [12] was 1000 µg/mL (≈ 780 µM), the “Cytotoxicity HepG2 EC50” value [13] was over 1000 µg/mL and the “in vivo efficacy versus LMWH by anti-factor Xa activity (summary)” value [14] was “superior to protamine”. For the same compound, the hemodynamic response profile ([15]; anesthetized rat, 8 or 16 mg/kg 10 minute IV infusion after heparin 50 U/kg) was “superior to protamine”, the “hemodynamic liabilities (summary)” value ([15]; rat, in vivo) was “reduced hemodynamic liabilities” and the “in vivo efficacy versus LMWH by bleeding time (summary)” value ([16]; compared with protamine) was “superior to protamine”. The “neutralization of prolonged bleeding times” value ([16]; rat, enoxaparin 2 mg/kg IV, test agent 2 mg/kg IV) was “completely neutralized”, the EC50 [17] was 1390 nM and 1840 nM and the “hemolysis and cytotoxicity (summary)” value [18] was “non-hemolytic and low cytotoxicity”. For the same compound, the EC50 [18] was over 1000 µg/mL, the EC50 [19] was 0.101 µM and the EC50 at 1 h [20] was 1000 µg/mL (≈ 780 µM). For the same compound, the “Cytotoxicity 3T3 EC50” value [21] was over 1000 µg/mL.
For `COc1cc(OC)c(C(=O)N[C@H]2CC[C@H](NC(=O)c3ccc(OCCCCCN)cc3OCCCCCN)CC2)cc1C(=O)N[C@H]1CC[C@H](NC(=O)c2ccc(OCCCCCN)cc2OCCCCCN)CC1` [Compound 335], the EC50 [9] was 148 nM and 120 nM, the EC50 [10] was 1560 nM and 1390 nM and the “neutralization of UFH activity in aPTT assays” value [11] was “complete neutralization”. For the same compound, the EC50 at 1 h [12] was 700 µg/mL (≈ 679 µM), the EC50 [22] was 185 nM and 201 nM and the EC50 [17] was 1700 nM and 1410 nM. The EC50 [18] was over 1000 µg/mL, the EC50 [19] was 0.151 µM and the EC50 at 1 h [20] was 120 µg/mL (≈ 116 µM).
